The structures appear in SMILES notation. *1 amine or outer side, *2 acyl side, *3 side chain or, on linkers, in order; H or OH if unused. Where a SMILES comes first, the peptide text is derived from it. Bridges are numbered along the chain shown (N, C = ends). [ ]: non-standard residue; d: D form. Phe(Nα-(CH2)3CO) = O=C([C@H](Cc1ccccc1)N(CCCC(=O)[*:3])[*:1])[*:2]; Phe(Nα-CH2CH2CO) = O=C([C@H](Cc1ccccc1)N(CCC(=O)[*:3])[*:1])[*:2]; N(2-aminoethyl)Phe = O=C([C@H](Cc1ccccc1)N(CCN[*:3])[*:1])[*:2]; NMeF = CN[C@@H](Cc1ccccc1)C(=O)O; Sar = CNCC(=O)O

Data set [1] in a line: Metabolic stability in rat brush border vesicles. The data set is classed as ADME.
A short description of data set [2]: Apparent permeability across Caco-2 cells. Conditions: human. The data set is classed as ADME, cell-based.
Data set [3] deals with Intestine. As to the kind of experiment: Apparent permeability across rat small intestine. The data set is classed as ADME, tissue-based.
A short description of data set [4]: Permeability in biomimetic membrane layer DMPC vesicles assessed as decrease in fluorescence at 30 uM by colorimetric mixed-vesicle assay. The data set is classed as ADME, cell membranes.
Data set [5] can be described thus: Apparent permeability across Caco-2 cells via paracellular pathway. The following applies: human. The data set is classed as ADME, cell-based. In general terms: Caco-2 cells form a polarised layer with tight junctions and transporters.
The nature of data set [6]: Lipophilicity, log D in octanol at pH 7.4. Type of data set: physicochemical.
A short description of data set [7]: Permeability across artificial membrane by PAMPA model. The data set is classed as ADME. The following applies: read-out: permeability. A general note: PAMPA measures passive passage across an artificial lipid membrane.

With `NC(=O)[C@H](Cc1ccccc1)N1CCNC(=O)CCCCN[C@@H](Cc2ccccc2)C(=O)NCC(=O)NCC(=O)NCC(=O)NCC1=O`, the Stability result in data set [1] is on record as “Stable”. Further, the Papp in data set [2] was 1.5 ×10⁻⁶ cm/s; in data set [3], 5.02 ×10⁻⁶ cm/s.
On to `CN[C@@H](Cc1ccccc1)C(=O)N[C@@H](C)C(=O)N[C@@H](C)C(=O)NCC(=O)NCC(=O)N(C)[C@@H](Cc1ccccc1)C(N)=O` (H-[NMeF]AAGG[NMeF]-NH2), for which the Papp in data set [2] was 0.87 ×10⁻⁶ cm/s; in data set [3], 0.99 ×10⁻⁶ cm/s.
Consider `CN[C@@H](Cc1ccccc1)C(=O)NCC(=O)NCC(=O)NCC(=O)NCC(=O)N(C)[C@@H](Cc1ccccc1)C(N)=O` (H-[NMeF]GGGG[NMeF]-NH2), for which the Papp in data set [2] amounted to 1.82 ×10⁻⁶ cm/s; in data set [3], 0.73 ×10⁻⁶ cm/s. The permeability in data set [4] turned out to be 40%.
Regarding `CN[C@@H](Cc1ccccc1)C(=O)N(C)CC(=O)NCC(=O)NCC(=O)NCC(=O)N(C)[C@@H](Cc1ccccc1)C(N)=O` (H-[NMeF][Sar]GGG[NMeF]-NH2), the Papp is 1.74 ×10⁻⁶ cm/s in data set [5], 0.58 ×10⁻⁶ cm/s in data set [2] and 0.75 ×10⁻⁶ cm/s in data set [3]. Also, the permeability in data set [4] amounted to 35%.
Consider `CN[C@@H](Cc1ccccc1)C(=O)N(C)CC(=O)N(C)CC(=O)NCC(=O)NCC(=O)N(C)[C@@H](Cc1ccccc1)C(N)=O` (H-[NMeF][Sar][Sar]GG[NMeF]-NH2), for which the results for the Papp in data set [2] and in data set [3] were 0.46 ×10⁻⁶ cm/s and 1 ×10⁻⁶ cm/s, respectively.
On to `NC(=O)[C@H](Cc1ccccc1)N1CCNC(=O)CCCN[C@@H](Cc2ccccc2)C(=O)NCC(=O)NCC(=O)NCC(=O)NCC1=O` (H-[Phe(Nα-(CH2)3CO)]GGGG[N(2-aminoethyl)Phe]-NH2; lactam 1-6), for which the Stability entry in data set [1] is “Stable”. Also, the Papp in data set [2] worked out at 2.73 ×10⁻⁶ cm/s; in data set [3], 4.2 ×10⁻⁶ cm/s.
As for `C[C@H](NC(=O)[C@H](C)NC(=O)[C@H](Cc1ccccc1)NCCC(=O)O)C(=O)N[C@@H](C)C(=O)N[C@@H](C)C(=O)N(CCN)[C@@H](Cc1ccccc1)C(N)=O` (H-[Phe(Nα-CH2CH2CO)]AAAA[N(2-aminoethyl)Phe]-NH2), the Papp was determined as 0.2 ×10⁻⁶ cm/s in data set [2] and 0.67 ×10⁻⁶ cm/s in data set [3].
The term logD denotes the decadic logarithm of the distribution of all forms, ionised or not, between an organic phase and buffer at a given pH. High values mean higher lipophilicity, low ones lower lipophilicity. With `C[C@@H]1NC(=O)[C@H](C)NC(=O)[C@H](Cc2ccccc2)NCCC(=O)NCCN([C@@H](Cc2ccccc2)C(N)=O)C(=O)[C@H](C)NC(=O)[C@H](C)NC1=O` (H-[Phe(Nα-CH2CH2CO)]AAAA[N(2-aminoethyl)Phe]-NH2; lactam 1-6), the Stability result in data set [1] is listed as “Stable”. The figures for the Papp in data set [2] and in data set [3] were 1.47 ×10⁻⁶ cm/s and 5.63 ×10⁻⁶ cm/s, respectively. Further, in data set [6], the pH-dependent lipophilicity (logD) came to 0.49.
With `C[C@@H]1NC(=O)[C@H](C)NC(=O)[C@H](C)NC(=O)[C@H](Cc2ccccc2)NCCC(=O)NCCN([C@@H](Cc2ccccc2)C(N)=O)C(=O)CNC1=O` (H-[Phe(Nα-CH2CH2CO)]AAAG[N(2-aminoethyl)Phe]-NH2; lactam 1-6), the Stability result in data set [1] is on record as “Stable”. For the same compound, the values for the Papp in data set [2] and in data set [3] were 3.47 ×10⁻⁶ cm/s and 6.16 ×10⁻⁶ cm/s, respectively.
On to `C[C@@H]1NC(=O)[C@H](C)NC(=O)[C@H](Cc2ccccc2)NCCC(=O)NCCN([C@@H](Cc2ccccc2)C(N)=O)C(=O)CNC(=O)CNC1=O` (H-[Phe(Nα-CH2CH2CO)]AAGG[N(2-aminoethyl)Phe]-NH2; lactam 1-6), for which the Stability entry in data set [1] was “Stable”. Besides, the figures for the Papp in data set [2] and in data set [3] were 3.22 ×10⁻⁶ cm/s and 5.26 ×10⁻⁶ cm/s, respectively.
Regarding `C[C@@H]1NC(=O)[C@H](Cc2ccccc2)NCCC(=O)NCCN([C@@H](Cc2ccccc2)C(N)=O)C(=O)CNC(=O)CNC(=O)CNC1=O` (H-[Phe(Nα-CH2CH2CO)]AGGG[N(2-aminoethyl)Phe]-NH2; lactam 1-6), in data set [1], the Stability result is listed as “Stable”. Further, the figures for the Papp in data set [2] and in data set [3] were 1.9 ×10⁻⁶ cm/s and 3.89 ×10⁻⁶ cm/s, respectively.
Consider `NC(=O)[C@H](Cc1ccccc1)N1CCNC(=O)CCN[C@@H](Cc2ccccc2)C(=O)NCC(=O)NCC(=O)NCC(=O)NCC1=O` (H-[Phe(Nα-CH2CH2CO)]GGGG[N(2-aminoethyl)Phe]-NH2; lactam 1-6), for which, in data set [1], the Stability result is given as “Stable”. The Papp in data set [2] came out at 5.43 ×10⁻⁶ cm/s. The logD in data set [6] was -0.41. Besides, the permeability in data set [4] stood at 40%.
As to `CN1CC(=O)NCC(=O)NCC(=O)NCC(=O)N([C@@H](Cc2ccccc2)C(N)=O)CCNC(=O)CCN[C@@H](Cc2ccccc2)C1=O` (H-[Phe(Nα-CH2CH2CO)][Sar]GGG[N(2-aminoethyl)Phe]-NH2; lactam 1-6), the Stability entry in data set [1] was “Stable”. For the same compound, the figures for the Papp in data set [5], in data set [2] and in data set [3] were 7.58 ×10⁻⁶ cm/s, 2.22 ×10⁻⁶ cm/s and 4.58 ×10⁻⁶ cm/s, respectively. Moreover, in data set [6], the logD is -0.57. The permeability in data set [4] was found to be 35%.
On to `CN1CC(=O)NCC(=O)NCC(=O)N([C@@H](Cc2ccccc2)C(N)=O)CCNC(=O)CCN[C@@H](Cc2ccccc2)C(=O)N(C)CC1=O` (H-[Phe(Nα-CH2CH2CO)][Sar][Sar]GG[N(2-aminoethyl)Phe]-NH2; lactam 1-6), for which the Stability entry in data set [1] is reported as “Stable”. The Papp was 2.45 ×10⁻⁶ cm/s in data set [2] and 3.94 ×10⁻⁶ cm/s in data set [3].
In the case of `CN1CC(=O)NCC(=O)N([C@@H](Cc2ccccc2)C(N)=O)CCNC(=O)CCN[C@@H](Cc2ccccc2)C(=O)N(C)CC(=O)N(C)CC1=O` (H-[Phe(Nα-CH2CH2CO)][Sar][Sar][Sar]G[N(2-aminoethyl)Phe]-NH2; lactam 1-6), in data set [1], the Stability entry is listed as “Stable”. For the same compound, the results for the Papp in data set [2] and in data set [3] were 2.95 ×10⁻⁶ cm/s and 5.63 ×10⁻⁶ cm/s, respectively.
`CN1CC(=O)N(C)CC(=O)N([C@@H](Cc2ccccc2)C(N)=O)CCNC(=O)CCN[C@@H](Cc2ccccc2)C(=O)N(C)CC(=O)N(C)CC1=O` (H-[Phe(Nα-CH2CH2CO)][Sar][Sar][Sar][Sar][N(2-aminoethyl)Phe]-NH2; lactam 1-6): in data set [1], the Stability result was “Stable”. For the same compound, the results for the Papp in data set [2] and in data set [3] were 1.56 ×10⁻⁶ cm/s and 4.87 ×10⁻⁶ cm/s, respectively.
Take `Nc1nc2c(ncn2COCCO)c(=O)[nH]1` [ACYCLOVIR]: the Papp in data set [7] came to 0.01 ×10⁻⁶ cm/s.
On to `Cc1cc(=O)n(-c2ccccc2)n1C` [ANTIPYRINE], for which, in data set [7], the Papp turned out to be 1.18 ×10⁻⁶ cm/s.
`OC[C@@H](O)[C@@H](O)[C@H](O)[C@H](O)CO` [MANNITOL]: the Papp in data set [2] is 2.2 ×10⁻⁶ cm/s; in data set [3] it was 5 ×10⁻⁶ cm/s.
As for `C[C@]12CC[C@H]3[C@@H](CCC4=CC(=O)CC[C@@]43C)[C@@H]1CC[C@@H]2O` [TESTOSTERONE], in data set [7], the Papp came out at 8.67 ×10⁻⁶ cm/s.

The record behind these values is ChEMBL document CHEMBL1138310, “Effect of structural and conformation modifications, including backbone cyclization, of hydrophilic hexapeptides on their intestinal permeability and enzymatic stability” (J Med Chem, 2007).
